Data: US20090325964A1, “Piperazine Metabotropic Glutamate Receptor 5 (MGLUR5) Negative Allosteric Modulators For Anxiety/Depression” (Wyeth, priority 2008, published 2009)
Read-outs that look alike come from different tables or passages of the source.

Legend:
[1] = molecular target: mGluR5 (Rattus norvegicus, UniProt P31424); assay: IC50 column under 'Biological Activity' (assay not identified in the shown text; not the binding Ki)
[2] = molecular target: T1, rat mGluR5 receptor (Rattus norvegicus, UniProt P31424); assay: [3H]-MPEP displacement binding assay, HEK-293 cell membranes expressing rat mGluR5; conditions: for Ki: read-out: Median Ki; for IC50: no Ki given, read-out: IC50 (printed in the Median Ki column instead of a Ki)
T1 construct: expressed in transfected cells; host or cells: HEK-293
Method in brief: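 Membranes from HEK-293 cells expressing rat mGluR5 (12-25 μg protein), incubated 60 min at room temperature with 4 nM [3H]-MPEP in 50 mM Tris pH 7.5, then filtered. Nonspecific binding defined with 10 μM MPEP.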

[3] = [3H]-MPEP displacement, rat mGluR5
[4] = @ 10 μM compound, Biological Activity, Table 2A, read-out: PCT INHIB (%) @ 10 μM
[5] = 1 h, single point, @ 10 μm compound, Table 1A, read-out: PCT INHIB (%) @ 10 μm
[6] = single point, @ 10 μM compound, Table 3A, read-out: PCT INHIB (%) @ 10 μM

mGluR5, sequence (P31424 21-1203): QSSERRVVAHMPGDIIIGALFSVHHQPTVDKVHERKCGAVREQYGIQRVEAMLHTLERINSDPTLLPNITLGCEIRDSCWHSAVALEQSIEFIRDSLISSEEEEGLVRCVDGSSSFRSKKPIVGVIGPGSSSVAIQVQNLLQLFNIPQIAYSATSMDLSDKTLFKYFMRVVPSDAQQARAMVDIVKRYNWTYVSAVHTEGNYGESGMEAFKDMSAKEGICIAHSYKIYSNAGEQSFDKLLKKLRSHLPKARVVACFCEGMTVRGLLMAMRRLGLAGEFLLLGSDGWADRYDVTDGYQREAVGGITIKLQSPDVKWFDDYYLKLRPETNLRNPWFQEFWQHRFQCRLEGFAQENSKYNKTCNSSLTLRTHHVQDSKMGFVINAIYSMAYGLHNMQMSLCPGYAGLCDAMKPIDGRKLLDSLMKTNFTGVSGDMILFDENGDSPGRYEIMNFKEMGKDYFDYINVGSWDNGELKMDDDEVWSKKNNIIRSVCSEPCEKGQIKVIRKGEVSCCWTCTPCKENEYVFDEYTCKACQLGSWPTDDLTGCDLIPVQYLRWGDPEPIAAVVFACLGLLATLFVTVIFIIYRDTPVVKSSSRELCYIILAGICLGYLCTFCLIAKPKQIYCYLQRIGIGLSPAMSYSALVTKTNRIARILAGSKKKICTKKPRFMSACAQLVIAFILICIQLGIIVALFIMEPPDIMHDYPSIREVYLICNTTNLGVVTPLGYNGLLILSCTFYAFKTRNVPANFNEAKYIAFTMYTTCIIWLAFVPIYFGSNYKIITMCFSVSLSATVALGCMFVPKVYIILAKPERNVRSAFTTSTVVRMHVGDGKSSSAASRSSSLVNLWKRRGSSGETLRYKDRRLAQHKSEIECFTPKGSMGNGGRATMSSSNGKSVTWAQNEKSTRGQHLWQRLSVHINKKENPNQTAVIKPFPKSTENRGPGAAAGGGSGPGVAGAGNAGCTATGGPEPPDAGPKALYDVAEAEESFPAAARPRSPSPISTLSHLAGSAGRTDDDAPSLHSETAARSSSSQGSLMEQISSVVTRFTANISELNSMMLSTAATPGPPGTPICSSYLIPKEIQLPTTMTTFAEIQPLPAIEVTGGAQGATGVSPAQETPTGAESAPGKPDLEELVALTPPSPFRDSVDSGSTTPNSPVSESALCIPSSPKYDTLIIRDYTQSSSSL
T1 sequence (P31424 21-1203): as above

**Q.** For `COc1ccc(C(=O)N2CCN(c3ccc(Cl)cc3)C(=O)C2)cc1C#Cc1ccccn1` [Compound 326, 1-(4-Chlorophenyl)-4-{[4-methoxy-3-(pyridin-2-ylethynyl)phenyl]carbonyl}piperazin-2-one], which IC50 [1] is on record?
**A.** 0.029 µM

**Q.** What about the Ki [2, 3] of the same molecule?
**A.** 0.072 µM

**Q.** How did the IC50 [1] turn out when `COc1ccc(C(=O)N2CCN(c3nnc(C(F)(F)F)s3)CC2)cc1C#Cc1ccccn1` [Compound 206, 1-[4-methoxy-3-(pyridin-2-ylethynyl)benzoyl]-4-[5-(trifluoromethyl)-1,3,4-thiadiazol-2-yl]piperazine] was run?
**A.** 0.295 µM

**Q.** What about the Ki [2, 3] of the same molecule?
**A.** 0.066 µM

**Q.** With `COc1ccc(C(=O)N2CCN(c3nnc(Cl)c4ccccc34)CC2)cc1C#Cc1ccccn1` [Compound 306, 1-chloro-4-{4-[4-methoxy-3-(pyridin-2-ylethynyl)benzoyl]piperazin-1-yl}phthalazine] as the molecule, how does the IC50 [1] read?
**A.** 0.356 µM

**Q.** And the Ki [2, 3]?
**A.** 0.072 µM

**Q.** With `COc1ccc(C(=O)N2CCN(Cc3cccc(Cl)c3)CC2)cc1C#Cc1ccccn1` [Compound 274, 1-(3-chlorobenzyl)-4-[4-methoxy-3-(pyridin-2-ylethynyl)benzoyl]piperazine] as the molecule, how does the IC50 [1] read?
**A.** 0.316 µM

**Q.** And the Ki [2, 3]?
**A.** 0.089 µM

**Q.** Which results are given for `O=C(c1ccc(OC(F)(F)F)c(C#Cc2ccccn2)c1)N1CCN(c2ccccn2)CC1` [Compound 340, 1-Pyridin-2-yl-4-{[3-(pyridin-2-ylethynyl)-4-(trifluoromethoxy)phenyl]carbonyl}piperazine]?
**A.** IC50 [1]: 0.007 µM; Ki [2, 3]: 0.002 µM

**Q.** For `CCOc1ccc(C(=O)N2CCN(c3ccccn3)CC2)cc1C#Cc1ccccn1` [Compound 318, 1-[4-ethoxy-3-(pyridin-2-ylethynyl)benzoyl]-4-pyridin-2-ylpiperazine], which IC50 [1] is on record?
**A.** 0.019 µM

**Q.** What about the Ki [2, 3] of the same molecule?
**A.** 0.018 µM

**Q.** With `COc1ccc(C(=O)N2CCN(Cc3ccc(Br)cc3F)CC2)cc1C#Cc1ccccn1` [Compound 285, 1-(4-bromo-2-fluorobenzyl)-4-[4-methoxy-3-(pyridin-2-ylethynyl)benzoyl]piperazine] as the molecule, how does the IC50 [1] read?
**A.** 0.326 µM

**Q.** What about the Ki [2, 3] of the same molecule?
**A.** 0.007 µM

**Q.** `COc1ccc(C(=O)N2CCN(c3ncccn3)CC2)cc1C#Cc1ccccn1` [Compound 353, 2-{4-[4-methoxy-3-(pyridin-2-ylethynyl)benzoyl]piperazin-1-yl}pyrimidine] was tested. Which IC50 [1] did it give?
**A.** 0.072 µM

**Q.** With `CCc1cccc(OCc2cccc(C(=O)N3CCN(c4ccccn4)CC3)c2)c1` [Compound 166, 1-{3-[(3-ethylphenoxy)methyl]benzoyl}-4-pyridin-2-ylpiperazine] as the molecule, how does the Ki ([2]; [3H]-MPEP 4 nM, Table 4A) read?
**A.** > 10 µM

**Q.** Which inhibition at 10 µM [2, 4] does the source give for `CN1CCN(C(=O)c2cccc(C#Cc3ccccc3)c2)CC1` [Compound 70, 1-methyl-4-[3-(phenylethynyl)benzoyl]piperazine] here?
**A.** 0%

**Q.** `COc1ccc(C(=O)N2CCN(c3ccccn3)CC2)cc1C#Cc1cccnc1` [Compound 35, 1-[4-methoxy-3-(pyridin-3-ylethynyl)benzoyl]-4-pyridin-2-ylpiperazine] was tested. Which inhibition at 10 µM [2, 5] did it give?
**A.** 67%

**Q.** And the Ki [2]?
**A.** 0.898 µM

**Q.** `O=C(c1cncc(C#Cc2ccccc2)c1)N1CCN(c2ccc(C(F)(F)F)cn2)CC1` [Compound 132, 1-{[5-(phenylethynyl)pyridin-3-yl]carbonyl}-4-[5-(trifluoromethyl)pyridin-2-yl]piperazine] was tested. Which inhibition at 10 µM [2, 4] did it give?
**A.** 0%

**Q.** Which inhibition at 10 µM ([2]; single point, @ 10 μM compound, Table 6, read-out: PCT INHIB (%) @ 10 μM) does the source give for `COc1cccc(C#Cc2cccc(CN3CCN(c4ccccn4)CC3)c2)c1` [Compound 181, 1-{3-[(3-methoxyphenyl)ethynyl]benzyl}-4-pyridin-2-ylpiperazine] here?
**A.** 0%

**Q.** `Cc1ccc(C(=O)N2CCN(c3ccccn3)CC2)cc1C#Cc1ccncc1` [Compound 48, 1-[4-methyl-3-(pyridin-4-ylethynyl)benzoyl]-4-pyridin-2-ylpiperazine] was tested. Which inhibition at 10 µM [2, 5] did it give?
**A.** 49%

**Q.** `COc1cccc(C#Cc2cc(C(=O)N3CCN(c4cnccn4)CC3)ccc2C)c1` [Compound 58, 2-(4-{3-[(3-methoxyphenyl)ethynyl]-4-methylbenzoyl}piperazin-1-yl)pyrazine] was tested. Which inhibition at 10 µM [2, 5] did it give?
**A.** 93%

**Q.** And the Ki [2]?
**A.** 0.322 µM

**Q.** `COc1ccc(C(=O)N2CCN(c3ncccc3Cl)CC2)cc1C#Cc1ccc(OCc2ccccc2)cc1` [Compound 346, 1-(3-{[4-(benzyloxy)phenyl]ethynyl}-4-methoxybenzoyl)-4-(3-chloropyridin-2-yl)piperazine] was tested. Which IC50 [2, 3] did it give?
**A.** > 10 µM

**Q.** How did the Ki [2, 3] turn out when `COc1ccc(C(=O)N2CCN(c3ncccn3)CC2)cc1C#Cc1cccnc1` [Compound 354, 2-{4-[4-methoxy-3-(pyridin-3-ylethynyl)benzoyl]piperazin-1-yl}pyrimidine] was run?
**A.** 4.97 µM

**Q.** For `COc1ccc(C(=O)N2CCN(c3ccccn3)CC2)cc1OCc1cccc(F)c1` [Compound 163, 1-{3-[(3-fluorobenzyl)oxy]-4-methoxybenzoyl}-4-pyridin-2-ylpiperazine], which inhibition at 10 µM [2, 6] is on record?
**A.** 11%

**Q.** `O=C(c1cncc(C#Cc2ccccc2)c1)N1CCN(c2ncccc2C(F)(F)F)CC1` [Compound 134, 1-{[5-(phenylethynyl)pyridin-3-yl]carbonyl}-4-[3-(trifluoromethyl)pyridin-2-yl]piperazine] was tested. Which inhibition at 10 µM [2, 4] did it give?
**A.** 0%

**Q.** Which IC50 [2, 3] does the source give for `COc1ccc(C(=O)N2CCN(c3ncccc3Cl)CC2)cc1C#Cc1ccc(OC(F)(F)F)cc1` [Compound 348, 1-(3-chloropyridin-2-yl)-4-(4-methoxy-3-{[4-(trifluoromethoxy)phenyl]ethynyl}benzoyl)piperazine] here?
**A.** > 10 µM

**Q.** Which inhibition at 10 µM [2, 5] does the source give for `Cc1ccc(C)c(C#Cc2cc(C(=O)N3CCN(c4ccccn4)CC3)ccc2C)c1` [Compound 30, 1-{3-[(2,5-dimethylphenyl)ethynyl]-4-methylbenzoyl}-4-pyridin-2-ylpiperazine] here?
**A.** 55%

**Q.** And the Ki [2]?
**A.** 3.81 µM

**Q.** Which inhibition at 10 µM [2, 4] does the source give for `COc1ccc(N2CCN(C(=O)c3cccc(C#Cc4ccccc4)c3)CC2)cc1` [Compound 71, 1-(4-methoxyphenyl)-4-[3-(phenylethynyl)benzoyl]piperazine] here?
**A.** 40%

**Q.** `COc1ccc(C(=O)N2CCN(c3ccccn3)CC2)cc1C#Cc1cccc(C)c1` [Compound 18, 1-{4-methoxy-3-[(3-methylphenyl)ethynyl]benzoyl}-4-pyridin-2-ylpiperazine] was tested. Which inhibition at 10 µM [2, 5] did it give?
**A.** 99%

**Q.** What about the Ki [2] of the same molecule?
**A.** 0.006 µM

**Q.** What does the source list for `COc1cccc(C#Cc2cc(C(=O)N3CCN(c4cnccn4)CC3)ccc2OC)c1` [Compound 52, 2-(4-{4-methoxy-3-[(3-methoxyphenyl)ethynyl]benzoyl}piperazin-1-yl)pyrazine]?
**A.** inhibition at 10 µM [2, 5]: 81%; Ki [2]: 0.0601 µM

**Q.** `COc1ccc(C(=O)N2CCN(Cc3c(Cl)cccc3Cl)CC2)cc1C#Cc1ccccn1` [Compound 277, 1-(2,6-dichlorobenzyl)-4-[4-methoxy-3-(pyridin-2-ylethynyl)benzoyl]piperazine] was tested. Which Ki [2, 3] did it give?
**A.** 0.272 µM

**Q.** `COc1ccc(C(=O)N2CCCN(c3ccc([N+](=O)[O-])cn3)CC2)cc1C#Cc1ccccn1` [Compound 215, 1-[4-methoxy-3-(pyridin-2-ylethynyl)benzoyl]-4-(5-nitropyridin-2-yl)-1,4-diazepane] was tested. Which Ki [2, 3] did it give?
**A.** 2.19 µM

**Q.** With `COc1ccc(C(=O)N2CCN(c3cccc(C)n3)CC2)cc1C#Cc1ccccn1` [Compound 198, 1-[4-methoxy-3-(pyridin-2-ylethynyl)benzoyl]-4-(6-methylpyridin-2-yl)piperazine] as the molecule, how does the IC50 [1] read?
**A.** 0.034 µM

**Q.** For `COc1ccc(C(=O)N2CCN(c3ccccc3C(F)(F)F)CC2)cc1C#Cc1ccccn1` [Compound 246, 1-[4-methoxy-3-(pyridin-2-ylethynyl)benzoyl]-4-[2-(trifluoromethyl)phenyl]piperazine], which Ki [2, 3] is on record?
**A.** 2.84 µM

**Q.** Which Ki [2, 3] does the source give for `COc1ccc(C(=O)N2CCN(Cc3c(F)cccc3Cl)CC2)cc1C#Cc1ccccn1` [Compound 289, 1-(2-chloro-6-fluorobenzyl)-4-[4-methoxy-3-(pyridin-2-ylethynyl)benzoyl]piperazine] here?
**A.** 0.269 µM

**Q.** How did the Ki ([2]; [3H]-MPEP 4 nM, Table 4A) turn out when `O=C(c1cccc(COc2cccc(Cl)c2)c1)N1CCN(c2ccccn2)CC1` [Compound 168, 1-{3-[(3-chlorophenoxy)methyl]benzoyl}-4-pyridin-2-ylpiperazine] was run?
**A.** 0.813 µM

**Q.** For `O=C(c1ccc(Cl)c(C#Cc2ccccn2)c1)N1CCN(c2cccc(C(F)(F)F)c2)CC1` [Compound 392, 1-[4-chloro-3-(pyridin-2-ylethynyl)benzoyl]-4-[3-(trifluoromethyl)phenyl]piperazine], which Ki ([2]; [3H]-MPEP displacement, rat mGluR5 membranes) is on record?
**A.** 0.12 µM

**Q.** Which Ki [2, 3] does the source give for “1-(3-chlorobenzyl)-4-[4-methoxy-3-(pyridin-2-ylethynyl)benzoyl]piperazin-2-one [Compound 333]” here?
**A.** 0.034 µM

**Q.** Which inhibition at 10 µM [2, 4] does the source give for `COc1ccc(C(=O)N2CCN(c3nc(C)cc(C)n3)CC2)cc1C#Cc1ccccc1` [Compound 119, 2-{4-[4-methoxy-3-(phenylethynyl)benzoyl]piperazin-1-yl}-4,6-dimethylpyrimidine] here?
**A.** 35%

**Q.** How did the inhibition at 10 µM [2, 6] turn out when `COc1cccc(COc2cc(C(=O)N3CCN(c4ccccn4)CC3)ccc2OC)c1` [Compound 161, 1-{4-methoxy-3-[(3-methoxybenzyl)oxy]benzoyl}-4-pyridin-2-ylpiperazine] was run?
**A.** 0%

**Q.** Which results are given for `COc1ccc(C(=O)N2CCN(c3ccccn3)CC2)cc1C#Cc1cccc(C(F)(F)F)c1` [Compound 43, 1-(4-methoxy-3-{[3-(trifluoromethyl)phenyl]ethynyl}benzoyl)-4-pyridin-2-ylpiperazine]?
**A.** inhibition at 10 µM [2, 5]: 82%; Ki [2]: 0.278 µM

**Q.** With `COc1cccc(C(=O)N2CCN(C(=O)c3ccc(OC)c(C#Cc4ccccn4)c3)CC2)c1` [Compound 264, 1-(3-methoxybenzoyl)-4-[4-methoxy-3-(pyridin-2-ylethynyl)benzoyl]piperazine] as the molecule, how does the Ki [2, 3] read?
**A.** 0.106 µM

**Q.** `COc1ccc(C(=O)N2CCN(c3ccccn3)CC2)cc1C#Cc1cc(C)c(C)cc1C` [Compound 23, 1-{4-methoxy-3-[(2,4,5-trimethylphenyl)ethynyl]benzoyl}-4-pyridin-2-ylpiperazine] was tested. Which inhibition at 10 µM [2, 5] did it give?
**A.** 0%
